System: Staphylococcus aureus IF013276, Escherichia coli IF03972, Pseudomonas aeruginosa IF013275
Assay: Antibacterial test (inoculated composition held at 30° C., colony counting method)
Assay type: cell-based
Description: The following bacteria were suspended in a physiological saline such that the number of bacteria or spores was 10^8 CFU/mL. to prepare a bacteria-containing solution. Then, 0.005 mL of the thus obtained bacteria-containing solution was inoculated into 5 mL of the composition to be tested such that the bacteria concentration therein was […]. The thus inoculated composition was held at 30° C. for a predetermined period of time to measure the change in number of bacteria with time by the calculation using a colony counting method. The antibacterial property of the composition was evaluated according to the following four ratings.
Staphylococcus aureus IF013276
Pseudomonas aeruginosa IF013275
⊚: Sufficiently high antibacterial property (number of bacteria was decreased by […] or more)
◯: High antibacterial property (number of bacteria was decreased by […])
Δ: Low antibacterial property (number of bacteria was decreased by 10^2 to 10^1)

| Substance | antibacterial property by itself (0.1% by mass without antiseptic agent, with polyoxyethylene (60) hydrogenated castor oil, Table 2, after 7 days) | antibacterial property by itself (0.1% by mass in water without antiseptic agent, Table 1, after 9 days) |
| --- | --- | --- |
| α,β-2-hexyldecyl galactoside | no antibacterial property | – |
| α,β-n-dodecyl galactoside | – | no antibacterial property |

Reference: US20090156511A1, “Agent for Enhancing Antiseptic Power” (Kao Corporation, priority 2005, published 2009)
